# From patent US12600728B2, “Interleukin-17 inhibitors” (priority 2020, dated 2026)
# Like-named read-outs stand apart in the source and are kept apart here.
# Legend:
# [1] = target: recombinant human IL-17AA (Homo sapiens, UniProt Q16552); assay: IL-6 release from NHDF cells, IL-17AA plus TNF-α stimulation; assay type: cell-based; conditions: IL-17AA 30 pM + TNF-α 6 pM, 24 hours, IL-6 by ELISA
# Summary of the method: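 ELISA measured IL-6 in supernatants after 24 h at 37° C of NHDF cells with a compound/cytokine cocktail, pre-mixed 30 min at room temperature. Duplicates; 0.1% DMSO or 20% plasma final. IC50 from IL-6 remaining after subtracting the TNF-α-alone signal.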
# [2] = target: biotinylated human IL-17A / AF647-labeled human IL-17RA (Homo sapiens, UniProt Q16552); assay: Human IL-17A×IL-17RA TR-FRET assay; assay type: binding; conditions: 5 nM IL-17A, 30 nM IL-17RA
# Summary of the method: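 Compounds tested in duplicate at each concentration; neutral controls contain all components with DMSO in place of compound.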
# [3] = NHDF cells, read-out: IL17AA + TNF IC50 IL-6
# [4] = TR-FRET, read-out: IL17AA FRET/ IL17Rawt IC50
# Chain of biotinylated human IL-17A / AF647-labeled human IL-17RA (Q16552 24-155): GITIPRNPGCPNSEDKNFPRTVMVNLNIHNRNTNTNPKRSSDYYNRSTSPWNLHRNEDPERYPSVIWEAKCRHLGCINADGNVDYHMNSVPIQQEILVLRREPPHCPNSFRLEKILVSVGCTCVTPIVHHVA
# Chain of recombinant human IL-17AA (Q16552 24-155): as above
Structure (SMILES),"IC50 [1, 3] [nM]","IC50 [2, 4] [nM]","IC50 ([1]; IL17AA + TNF IC50 IL-6, NHDF cells) [nM]","IC50 ([2]; IL17AA FRET/ IL17Rawt IC50, TR-FRET) [nM]"
"Cc1cc[n+]([O-])c(C)c1-c1ccc(NC(=O)[C@@H](NC(=O)c2ccn3c2CNCC3)C2CCCCCC2)cc1 [Example 189, (S)-3-(4-(2-cycloheptyl-2-(1,2,3,4-tetrahydropyrrolo[1,2-a]pyrazine-8-carboxamido)acetamido)phenyl)-2,4-dimethylpyridine 1-oxide]",15.5,118,–,–
"Cc1cc[n+]([O-])c(C)c1-c1ccc(NC(=O)[C@H](Cc2ccccc2Cl)NC(=O)c2ccc3n2CCNC3)cc1 [Example 190, (S)-3-(4-(3-(2-chlorophenyl)-2-(1,2,3,4-tetrahydropyrrolo[1,2-a]pyrazine-6-carboxamido)propanamido)phenyl)-2,4-dimethylpyridine 1-oxide]",278,123,–,–
"CC(=O)N1CCn2c(ccc2C(=O)N[C@H](C(=O)Nc2ccc(-c3c(C(F)(F)F)cc[n+]([O-])c3C)cc2)C2CCCCC2)C1 [Example 191, (S)-3-(4-(2-(2-acetyl-1,2,3,4-tetrahydropyrrolo[1,2-a]pyrazine-6-carboxamido)-2-cyclohexylacetamido)phenyl)-2-methyl-4-(trifluoromethyl)pyridine 1-oxide]",18.5,128,–,–
"Cc1cc[n+]([O-])c(C)c1-c1ccc(NC(=O)[C@@H](NC(=O)c2ccnn2C)C(c2ccccc2)c2ccccc2)cc1 [Example 193, (S)-2,4-dimethyl-3-(4-(2-(1-methyl-1H-pyrazole-5-carboxamido)-3,3-diphenylpropanamido)phenyl)pyridine 1-oxide]",47,97.3,–,–
"CC(=O)N1CCn2c(ccc2C(=O)NC(C(=O)Nc2ccc(-c3c(Cl)cc[n+]([O-])c3C)c(F)c2)[C@H]2C[C@@H]3C[C@@H]3C2)C1 (stereo partly drawn) [Example 194, 3-(4-(2-(2-acetyl-1,2,3,4-tetrahydropyrrolo[1,2-a]pyrazine-6-carboxamido)-2-((1R,3s,5S)-bicyclo[3.1.0]hexan-3-yl)acetamido)-2-fluorophenyl)-4-chloro-2-methylpyridine 1-oxide]",47,165,–,–
"CC(=O)N1CCn2c(ccc2C(=O)N[C@H](C(=O)Nc2ccc(-c3c(C)cc[n+]([O-])c3C)cc2F)C2CCCCCC2)C1 [Example 195, (S)-3-(4-(2-(2-acetyl-1,2,3,4-tetrahydropyrrolo[1,2-a]pyrazine-6-carboxamido)-2-cycloheptylacetamido)-3-fluorophenyl)-2,4-dimethylpyridine 1-oxide]",28.5,178,–,–
"Cc1c(-c2ccc(NC(=O)[C@@H](NC(=O)c3ccc4n3CCNC4)C3CCC(F)(F)CC3)cc2)c(Cl)cc[n+]1[O-] [Example 196, (S)-4-chloro-3-(4-(2-(4,4-difluorocyclohexyl)-2-(1,2,3,4-tetrahydropyrrolo[1,2-a]pyrazine-6-carboxamido)acetamido)phenyl)-2-methylpyridine 1-oxide]",12.6,181,–,–
"Cc1cc[n+]([O-])c(C)c1-c1ccc(NC(=O)[C@@H](NC(=O)c2ccnn2C)[C@H]2CCC[C@H](F)CC2)cc1 [Example 197, 3-(4-((S)-2-((1S,4S)-4-fluorocycloheptyl)-2-(1-methyl-1H-pyrazole-5-carboxamido)acetamido)phenyl)-2,4-dimethylpyridine 1-oxide]",121,213,–,–
"CC(=O)N1CCn2c(ccc2C(=O)N[C@H](C(=O)Nc2ccc(-c3c(Cl)cc[n+]([O-])c3C)cc2)C2CCCCC2)C1 [Example 199, (S)-3-(4-(2-(2-acetyl-1,2,3,4-tetrahydropyrrolo[1,2-a]pyrazine-6-carboxamido)-2-cyclohexylacetamido)phenyl)-4-chloro-2-methylpyridine 1-oxide]",11.5,237,–,–
"Cc1cc[n+]([O-])c(C)c1-c1ccc(NC(=O)[C@@H](NC(=O)c2ccc3n2CCNC3)C2CCC(F)CC2)cc1 (stereo partly drawn) [Example 200, 3-(4-((2S)-2-(4-fluorocyclohexyl)-2-(1,2,3,4-tetrahydropyrrolo[1,2-a]pyrazine-6-carboxamido)acetamido)phenyl)-2,4-dimethylpyridine 1-oxide]",416,246,–,–
"Cc1cc[n+]([O-])c(C)c1-c1ccc(NC(=O)C(NC(=O)c2ccc3n2CCNC3)C2CC3CC3C2)cc1 [Example 201, 3-(4-((S)-2-((1R,3r,5S)-bicyclo[3.1.0]hexan-3-yl)-2-(1,2,3,4-tetrahydropyrrolo[1,2-a]pyrazine-6-carboxamido)acetamido)phenyl)-2,4-dimethylpyridine 1-oxide]",61,252,–,–
"Cc1cc[n+]([O-])c(C)c1-c1ccc(NC(=O)[C@@H](NC(=O)c2ccc3n2CCNC3)C2CCCCCC2)cc1 [Example 202, (S)-3-(4-(2-cycloheptyl-2-(1,2,3,4-tetrahydropyrrolo[1,2-a]pyrazine-6-carboxamido)acetamido)phenyl)-2,4-dimethylpyridine 1-oxide]",73,257,–,–
"Cc1c(-c2ccc(NC(=O)C(NC(=O)c3ccc4n3CCN(C)C4)C3CC4CC4C3)cc2F)c(Cl)cc[n+]1[O-] (stereo not drawn) [Example 203, 3-(4-(2-(bicyclo[3.1.0]hexan-3-yl)-2-(2-methyl-1,2,3,4-tetrahydropyrrolo[1,2-a]pyrazine-6-carboxamido)acetamido)-2-fluorophenyl)-4-chloro-2-methylpyridine 1-oxide]",39,257,–,–
"Cc1cc[n+]([O-])c(C)c1-c1ccc(NC(=O)C(NC(=O)c2ccc3n2CCNC3)C2CC3CC3C2)cc1 [Example 204, 3-(4-((S)-2-((1R,3s,5S)-bicyclo[3.1.0]hexan-3-yl)-2-(1,2,3,4-tetrahydropyrrolo[1,2-a]pyrazine-6-carboxamido)acetamido)phenyl)-2,4-dimethylpyridine 1-oxide]",95,278,–,–
"Cc1cc[n+]([O-])c(C)c1-c1ccc(NC(=O)[C@@H](NC(=O)c2ccc3n2CCNC3)C2CCCCC2)cc1 [Example 205, (S)-3-(4-(2-cyclohexyl-2-(1,2,3,4-tetrahydropyrrolo[1,2-a]pyrazine-6-carboxamido)acetamido)phenyl)-2,4-dimethylpyridine 1-oxide]",58,287,–,–
"Cc1cc[n+]([O-])c(C)c1-c1ccc(NC(=O)C(NC(=O)c2ccnn2C)C2C=C(F)CCC2)cc1 (stereo not drawn) [Example 219, 3-(4-(2-(3-fluorocyclohex-2-en-1-yl)-2-(1-methyl-1H-pyrazole-5-carboxamido)acetamido)phenyl)-2,4-dimethylpyridine 1-oxide]",–,–,142,2290

# Second part, led by results:
"IC50 [1, 3] [nM]","IC50 [2, 4] [nM]",Structure (SMILES),"IC50 ([1]; IL17AA + TNF IC50 IL-6, NHDF cells) [nM]","IC50 ([2]; IL17AA FRET/ IL17Rawt IC50, TR-FRET) [nM]"
63,296,"Cc1c(-c2ccc(NC(=O)[C@@H](NC(=O)c3ccc4n3CCNC4)C3CCCCC3)cc2)c(Cl)cc[n+]1[O-] [Example 206, (S)-4-chloro-3-(4-(2-cyclohexyl-2-(1,2,3,4-tetrahydropyrrolo[1,2-a]pyrazine-6-carboxamido)acetamido)phenyl)-2-methylpyridine 1-oxide]",–,–
69,303,"Cc1cc[n+]([O-])c(C)c1-c1ccc(NC(=O)[C@@H](NC(=O)c2ccc3n2CCNC3)C2CCC(F)(F)CC2)cc1 [Example 207, (S)-3-(4-(2-(4,4-difluorocyclohexyl)-2-(1,2,3,4-tetrahydropyrrolo[1,2-a]pyrazine-6-carboxamido)acetamido)phenyl)-2,4-dimethylpyridine 1-oxide]",–,–
2580,533,"Cc1cc[n+]([O-])c(C)c1-c1ccc(NC(=O)[C@@H](NC(=O)c2ccc3n2CCN(C)C3)C(C)c2ccccc2Cl)cc1 (stereo partly drawn) [Example 213, 3-(4-((2S)-3-(2-chlorophenyl)-2-(2-methyl-1,2,3,4-tetrahydropyrrolo[1,2-a]pyrazine-6-carboxamido)butanamido)phenyl)-2,4-dimethylpyridine 1-oxide]",–,–
138,755,"Cc1cc[n+]([O-])c(C)c1-c1ccc(NC(=O)[C@@H](NC(=O)c2ccnn2C)[C@H]2CCC[C@@H](F)CC2)cc1 [Example 215, 3-(4-((S)-2-((1S,4R)-4-fluorocycloheptyl)-2-(1-methyl-1H-pyrazole-5-carboxamido)acetamido)phenyl)-2,4-dimethylpyridine 1-oxide]",–,–
2960,1100,"Cc1cc[n+]([O-])c(C)c1-c1ccc(NC(=O)[C@H](Cc2ccccc2F)NC(=O)c2ccnn2C)cc1 [Example 217, (S)-3-(4-(3-(2-fluorophenyl)-2-(1-methyl-1H-pyrazole-5-carboxamido)propanamido)phenyl)-2,4-dimethylpyridine 1-oxide]",–,–
19.5,67.5,"Cc1c(-c2ccc(NC(=O)C(NC(=O)c3ccnn3C)C3CC4CC4C3)cc2)c(Cl)cc[n+]1[O-] (stereo not drawn) [Example 218, 3-(4-(2-(bicyclo[3.1.0]hexan-3-yl)-2-(1-methyl-1H-pyrazole-5-carboxamido)acetamido)phenyl)-4-chloro-2-methylpyridine 1-oxide]",–,–
264,71.9,"Cc1cc[n+]([O-])c(C)c1-c1ccc(NC(=O)C(NC(=O)c2conc2C)C(C)c2ccccc2Cl)cc1 (stereo not drawn) [Example 221, 3-(4-(3-(2-chlorophenyl)-2-(3-methylisoxazole-4-carboxamido)butanamido)phenyl)-2,4-dimethylpyridine 1-oxide]",–,–
108,2190,"Cc1c(-c2ccc(NC(=O)[C@@H](NC(=O)c3ccnn3C)C3CCCCC3)cc2)c(C(C)C)cc[n+]1[O-] [Example 224, (S)-3-(4-(2-cyclohexyl-2-(1-methyl-1H-pyrazole-5-carboxamido)acetamido)phenyl)-4-isopropyl-2-methylpyridine 1-oxide]",–,–
